Reference: paper PMC11334571, “EpCAM-targeted betulinic acid analogue nanotherapy improves therapeutic efficacy and induces anti-tumorigenic immune response in colorectal cancer tumor microenvironment” (Journal of Biomedical Science, 2024)

Columns and labels:
[1] = Pharmacokinetic evaluation; assay type: in vivo; settings: CRC-bearing mice, intravenous 25 mg/kg, plasma 2c
Procedure: Pharmacokinetic evaluation informs the time course of drug absorption, distribution, metabolism, and elimination (ADME) within the body. It is a crucial aspect of drug development and is vital in understanding how a drug behaves in vivo. 2c, 2cNP, and Apt-2cNP were injected separately into CRC-bearing mice through intravenous injection (dose: 25 mg/kg). Blood samples were withdrawn at 4 h, 8 h, 10 h, 12 h, 24 h, 48 h, 72 h, and 96 h post-injection, and plasma concentrations of 2c for all samples were determined using LC–MS following a previously described method. A plasma concentration vs time curve was generated using GraphPad Prism (version 5.0). Cmax and Tmax were determined directly from the curve. AUC, AUMC, and AUC0–∞ were calculated using the trapezoidal method. t1/2, MRT, and clearance values were calculated using standard formulas.

[2] = system: CRC tumor microenvironment; test: Cytokines (ELISA) and immune cells (flow cytometry) in CRC tumor microenvironment; assay type: in vivo; settings: CRC mice, 24 h and 48 h
Procedure: Colorectal tissues were isolated from the CRC-bearing mice before and after treatment with 2c, 2cNP, and Apt-2cNP, followed by washing with ice-cold PBS. Colons were then minced into small pieces and agitated with predigestion buffer (HBSS, 10 mM HEPES, 5 mM EDTA, 1 mM DTT, 5% FBS) for 20 min in a 37 °C incubator-shaker. The single cells suspension from the colonic tissues was prepared using a 100 µm cell strainer. The remaining tissue pieces collected from the cell strainer were then cut into finer fragments and treated with digestion solution (HBSS, 10 mM EDTA, 0.5 mg/ml collagenase D, 3 mg/ml dispase II and 5% FBS) in a 37 °C incubator-shaker for 30 min. The dissociated cells from the tissues were collected again through a 100 µm cell strainer. All the single-cell suspensions were pooled together and centrifuged using Percoll gradient. The lymphocytes were suspended in 4 ml of 40% Percoll solution and layered over 12 ml of 80% Percoll solution. Centrifugation was then carried out without a break at 1000 g for 20 min. The T cells were collected from the liquid interphase and resuspended in PBS or RPMI 1640 medium for further experiments.
To analyze cytokine levels (TNFα, IFNγ, and IL-10) and all other ELISA assays, sandwich ELISA kits were used. […] The reading was monitored using a multi-plate reader and then compared with the standard curve for actual measurement of the cytokine level. […]

CRC cancer tissue = test: Gene expression by qPCR in CRC tumor tissue; assay type: in vivo, mice; settings: CRC mouse model
Procedure: Gene expression analysis by quantitative real-time polymerase chain reaction (qPCR) is widely used in molecular biology and genetics research. qPCR allows the detection and quantification of specific RNA transcripts, providing insights into the expression levels of genes under various conditions or in different cell types or tissues. The expression of several genes related to apoptosis, autophagy, DNA synthesis, and inflammatory pathways were analyzed after treatment with 2c, 2cNP, and Apt-2cNP to understand the molecular mechanism behind their cytotoxic effects and to determine differences between aptamer-conjugated and unconjugated nanoparticles. Total RNA from CRC cancer tissue before and after treatment was isolated after completion of treatment time using TRIzol, following the manufacturer’s protocol. The RNA was checked for quality by measuring the […] ratio and quantified in a NanoDrop instrument. Then, cDNAs were prepared using RevertAid First Strand cDNA synthesis kit (ThermoFisher) followed by amplified using SYBR Green Master Mix (BioRad) in a thermal cycler (Veriti 96-well, Applied Biosystems, Massachusetts, USA). Relative transcript abundance values obtained from the instrument were plotted in bar diagrams. A total of 12 genes (caspase 3, Bcl-2, Bcl-XL, Bax, Atg5, LC3B, Beclin, p62, NF-κB, APC, p53, and TOP2) were analyzed for each sample. Sequences of the primers used (both forward primer and reverse primer) for each gene are in Supplementary Table T2.

HT-29 cells = test: Colony formation assay; assay type: cell-based, human; settings: HT-29, treated every 3 days for 12–14 days
Procedure: The colony formation assay, also known as the clonogenic assay, is a cell biology technique used to evaluate the ability of individual cells to undergo unlimited division and form colonies. This assay is commonly employed in cancer research, radiation biology, and drug screening studies to assess cells' proliferative potential and sensitivity to various treatments or conditions. A clonogenic assay was conducted here to evaluate the inhibitory effect of the free drug and nanoencapsulated therapies on the tumor-initiating capacity or colony formation potential of the colorectal cancer cells. About 500 cells were seeded for both the cell lines HT-29 and HCT116 in each well of a 12-well plate, followed by incubation overnight. The cells were treated with 2c, 2cNP, and Apt-2cNP every 3 days for a total of 12–14 days except for the control groups. After completion of drug incubation, the treated medium was withdrawn, and the cells were washed with PBS. 10% acetic acid (in methanol) was used as a fixation buffer, and colonies were stained with crystal violet solution (0.5% crystal violet in 25% methanol) and washed with PBS three times to remove excess dye. […] After imaging, the crystal violet stained colonies were dissolved in 10% acetic acid solution for 15 min under shaking conditions, and the absorbance of the supernatant was detected using a plate reader at 510 nm.

DMH-induced CRC = test: In vivo antitumor efficacy, Ki67 immunohistochemistry of colon; design: species or system Swiss albino mice; dose or concentration left out as unconfirmed; settings: CRC mice
Procedure: Sprague–Dawley (SD) rats (body weight = 140–160 g) and Swiss albino mice (body weight = 20–25 g) of either sex (male:female = 1:1) were selected for the chemical-induced colorectal carcinoma model. The study plan was prepared as per the guidelines of the Committee for the Purpose of Control and Supervision of Experiments on Animals (CPCSEA), India (JU-AEC; Registration Number: 1805/GO/Re/S/15/CPCSEA) and was sanctioned by the Animal Ethics Committee (AEC), Jadavpur University, (Protocol approval. no.: AEC/PHARM/1701/3/2018). The animals were procured from the National Institute of Nutrition (Hyderabad, India) and were habituated in housing conditions of 25 °C ± 1 °C temperature, 55% ± 5% relative humidity, and normal day/night photoperiod for at least 2 weeks before conducting any experiment. For the development of CRC-bearing mice, Dimethylhydrazine (DMH) was injected intraperitoneally at a dose of 20 mg/kg body weight once a week for 12 weeks. In contrast, for generating CRC-bearing rats, DMH was administered intraperitoneally at a dose of 25 mg/kg body weight once a week for 9 weeks, as described previously.
Evaluating in vivo antitumor efficacy with histopathological observations is essential to preclinical studies in cancer research and drug development. […] Ki67-positive and -negative cells were counted in microscopic images taken after staining using QuPath-0.3.2 software.

## C=C(C)[C@@H]1CC[C@]2(C(=O)O)CC[C@]3(C)[C@H](CC[C@@H]4[C@@]5(C)CC[C@H](OC(=O)Cn6cc(CO)nn6)C(C)(C)[C@@H]5CC[C@]43C)[C@@H]12 [2c, (3S)-3-[2-(4-hydroxymethyl-1H-1,2,3-triazol-1-yl)acetyloxy]-lup-20(29)-en-28-oic acid]
[1]
  AUC 0-∞: 380 ± 44 ng·h/mL
  AUC last: 376 ± 42 ng·h/mL
  AUMC: 8381 ± 1644 ng.h2/ml
  Clearance: 333 ± 30 mL/h
  Cmax: 23.5 ± 0.55 ng/mL
  MRT: 22.3 ± 1.72 h
  Tmax: 1 min
  Vd: 2.88 ± 0.15 L
  t1/2: 6 ± 0.5 h
[2]
  Percentages of CD4 and CD8 T cells in TME: did not change
CRC cancer tissue; 24 h and 48 h after treatment
  Topoisomerase-II RNA level: time-dependent decrease
CRC cancer tissue; 24 h and 48 h treatment
  RNA expression of anti-apoptotic genes (Bcl-2 and Bcl-XL): decrease
  RNA expression of pro-apoptotic genes (caspase 3 and Bax): time-dependent increase
CRC cancer tissue; 24 h or 48 h after treatment
  RNA expression of autophagy-related genes (Atg5, LC3B, Beclin): time-dependent increase
  p62 expression: decrease
HT-29 cells
  Inhibition of colony formation: moderate prohibition in colony formation
DMH-induced CRC
  Ki67-positive cells in colon: 58.88 ± 1.2%
